Reference: US20260184700A1, “PDK1 REGULATORY COMPOUND AND COMPOSITION CONTAINING THE SAME” (PROVIBIO CO., LTD., priority 2024, published 2026)

How the values were obtained:
[1] = tested on: HCT-116 colon cancer cell lines; test: Invasion Assay using Matrigel, HCT-116; type: cell-based, human; conditions: HCT-116, Matrigel invasion, 24 hours treatment
Method: To evaluate the metastasis inhibitory efficacy of the compounds of the present invention on HCT-116 colon cancer cell lines, an Invasion Assay using Matrigel was performed to assess the cells' invasion ability.
First, Matrigel was thawed on ice in RPMI-1640 medium without FBS, then diluted with DMEM at a ratio of 1:20.
The diluted Matrigel mixture was applied to the upper chamber at 100 μl per well, and 750 μl of RPMI-1640 without FBS was added to the lower chamber.
The plates were then incubated at 37° C. for 1 hour to allow the Matrigel to solidify.
After coating, the Matrigel mixture in the upper chamber was removed using a pipette, and the chamber was washed with RPMI without FBS.
Human-derived colorectal cancer cell line HCT-116, obtained from the Korean Cell Bank, was cultured in RPMI-1640 medium containing 10% FBS.
Following stabilization, the cells were harvested using Trypsin-EDTA treatment, centrifuged at 1,200 rpm for 3 minutes, the supernatant was removed, and the cells were resuspended in the same medium, the medium in the lower chamber was replaced with 750 μl of RPMI-1640 supplemented with 10% FBS, and the cells were seeded into the upper chamber at a density of 5×10^4 cells/well.
The cells were cultured for 24 hours after attachment, and then the compounds according to the present invention (G078, G085, G086, G088, G089, PBK-2024-010, PBK-2025-010, PBK-2025-013, PBK-2025-016) and the control substance DMSO were diluted and added to the upper chamber after removing the medium.
Additionally, the medium in the lower chamber was replaced with fresh RPMI-1640 containing FBS, and the culture was continued.
After an additional 24 hours, the medium was removed, and 1 ml of methanol was added for 10 minutes to fix the cells.
Subsequently, 1 ml of Hematoxylin was added and reacted for 5 minutes, followed by 1 ml of Eosin, which was reacted for 30 seconds. The sample was then washed with distilled water (DW).
After staining was complete, any remaining cells in the upper chamber were removed. Finally, the infiltrated cells were observed under a microscope, photographed, and the degree of infiltration was analyzed.

[2] = tested on: Human Bladder cancer cell, T24; test: Relative cell viability, CCK-8, T24; type: cell-based; conditions: 48 hours
Method: (§1) Human-derived breast cancer cell line MCF-7, human-derived lung cancer cell line A549, human-derived colorectal cancer cell line HCT-116, human pancreatic cancer cell line AsPC-1, glioblastoma cell line A172, and melanoma cell line Malme-3M were obtained from the Korean Cell Bank. gastric cancer cell line SNU-719, and bladder cancer cell line T24 were cultured in RPMI-1640 medium containing 10% FBS.
(§2) Following stabilization, the cells were harvested using Trypsin-EDTA treatment, centrifuged at 1,200 rpm for 3 minutes, the supernatant was removed, and the cells were resuspended in the same medium. They were then seeded into a 96-well plate (Costar 96-well cell culture plate, Corning) at 100 μL per well, and the conditions were adjusted as indicated in Table 5.
The cells were cultured in a 5% CO2 incubator at 37° C. for 24 hours, and after stabilization of the cells, each plate was washed with 200 μL of PBS per well and treated with 50 μL of culture medium per well. […]
(§3) After that, 10 μL of CCK-8 was added to each well, and the plate was incubated again at 37° C. in a 5% CO2 incubator for 2 hours.
(§4) In other words, when the survival rate of untreated cells (DMSO) is set at 100%, the relative cell survival rate in each group treated with the drug at different concentrations is indicated.

[3] = tested on: Human Colorectal Carcinoma cell line, HCT-116; test: Relative cell viability, CCK-8, HCT-116; type: cell-based; conditions: 48 hours
Method: as §1, §2
The cells were cultured in a 5% CO2 incubator at 37° C. for 24 hours, and after stabilization of the cells, each plate was washed with 200 μL of PBS per well and treated with 50 μL of culture medium per well.
as §3, §4

[4] = molecular target: T1, full-length (PDK1-FL) protein of human-derived PDK1 (Homo sapiens, UniProt O15530); test: Microscale Thermophoresis (MST) binding, full-length PDK1; conditions: Kd ratio
T1 construct: the full-length (PDK1-FL) protein of human-derived PDK1; inferred from the Ni-NTA purification; made in house; host or cells: Sf9 insect cells, baculovirus
T1 sequence (O15530 1-556): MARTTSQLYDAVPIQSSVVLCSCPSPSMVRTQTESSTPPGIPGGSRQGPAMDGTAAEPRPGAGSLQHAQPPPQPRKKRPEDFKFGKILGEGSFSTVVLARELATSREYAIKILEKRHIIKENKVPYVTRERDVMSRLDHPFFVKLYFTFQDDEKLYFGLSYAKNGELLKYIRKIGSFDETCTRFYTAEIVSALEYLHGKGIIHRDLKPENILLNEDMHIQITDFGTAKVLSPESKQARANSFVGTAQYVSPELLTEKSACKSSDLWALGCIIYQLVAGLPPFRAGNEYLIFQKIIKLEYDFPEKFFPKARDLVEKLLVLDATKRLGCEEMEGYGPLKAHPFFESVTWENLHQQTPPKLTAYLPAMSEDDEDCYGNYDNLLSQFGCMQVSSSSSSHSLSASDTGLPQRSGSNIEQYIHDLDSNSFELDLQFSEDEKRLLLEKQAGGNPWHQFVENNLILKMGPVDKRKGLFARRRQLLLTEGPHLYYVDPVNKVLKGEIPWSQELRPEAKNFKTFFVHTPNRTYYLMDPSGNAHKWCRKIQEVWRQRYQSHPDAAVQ
Method: Microscale Thermophoresis (MST) analysis was performed to quantitatively measure the binding affinity between PDK1 protein and substrate peptides (PDKTide) or the company-developed low-molecular-weight compound (GO88).
The target proteins were the full-length (PDK1-FL) protein of human-derived PDK1 and the Protein Kinase Domain (PKD) fragment, which were expressed using a baculovirus expression system in insect cell lines (Sf9).
The purity of the purified proteins was confirmed by SDS-PAGE and Coomassie Brilliant Blue staining.
The purified protein was labeled with a fluorescent label using the Monolith NT™ RED-NHS Protein Fluorescent Labeling Kit (NanoTemper).
Specifically, 20 μM of the protein was dissolved in PBS (pH 7.4) buffer, mixed with the fluorescent reagent, and reacted at room temperature under dark conditions for 30 minutes. The mixture was then buffered with MST analysis buffer (50 mM HEPES, 150 mM NaCl, 1 mM DTT, 0.05% Tween-20, pH 7.5). […]
The reaction samples were injected into an MST-specific capillary (NanoTemper) and analyzed using a Monolith NT.115 device (NanoTemper) under laser intensity conditions. […]
The measured data were analyzed using MO.Affinity Analysis software (NanoTemper), and the dissociation constant (Kd) was calculated from the binding curve.

CC1(C)CN(CCCCCCCCCCCCC(=O)Nc2nc(N)c3[nH]cnc3n2)CCO1 [Compound 11, 12-[4-(2,2-dimethylmorpholin-4-yl)]dodecyl-N-(6-aminopurine-2-yl)carboxamide] was tested, and the “number of infiltrated cells” value [1] was “reduction in the number of infiltrated cells”, the “Relative cell viability (%)” value ([2]; T24, 1 μM) was 28.15% and the “Relative cell viability (%)” value ([2]; T24, 10 μM) was 31.17%. The “Relative cell viability (%)” value ([2]; T24, 30 μM) was 30.42%, the “Relative cell viability (%)” value ([2]; T24, 50 μM) was 29.34% and the “Relative cell viability (%)” value ([3]; HCT-116, 1 μM) was 21.36%. For the same compound, the “Relative cell viability (%)” value ([3]; HCT-116, 10 μM) was 24.91%, the “Relative cell viability (%)” value ([3]; HCT-116, 30 μM) was 24.78% and the “Relative cell viability (%)” value ([3]; HCT-116, 50 μM) was 25.26%.

For Nc1ncccc1C(=O)NCCCCCCCCCCCCN1CCNCC1 [Compound 14, 2-Amino-N-(12-(piperazin-1-yl)dodecyl)nicotinamide], the “binding affinity of full-length PDK1 compared to the PDK fragment” value [4] was “six times stronger binding affinity”.
